Assay results: publication PMC3683333, “^11C-LY2428703, a positron emission tomographic radioligand for the metabotropic glutamate receptor 1, is unsuitable for imaging in monkey and human brains” (EJNMMI Research, 2013)
Read-outs that look alike come from different tables or passages of the source. Marks after values point to notes of the source that are not given here.

Legend:
mGluR1 = target: T1, mGluR1 (Rattus norvegicus, UniProt P23385); assay: Saturation binding assay with [^3H]LY456066, rat cerebellar membranes; parameters: species or system Sprague–Dawley rats; conditions: rats; fp from ref 10
T1 construct: P2 membrane fractions were prepared from the cerebella of male Sprague–Dawley rats; from tissue; host or cells: rat cerebellum, P2 membrane fraction
Procedure: P2 membrane fractions were prepared from the cerebella of male Sprague–Dawley rats (n = 3), male rhesus monkeys (n = 3), and female humans (n = 4). […] Nonspecific binding was defined by heterologous displacement of 1 μM LY480084 (mGlu1 antagonist) in select wells. Plates were incubated on ice for 75 min and membranes harvested on 0.3% polyethylenimine pretreated Wallac filter mats using a Tomtec Harvester MachII (Tomtec, Hamden, CT, USA). Dissociation constant (KD) and receptor density (Bmax) values were obtained in GraphPad Prism using standard nonlinear one-site binding equations. Data are presented as mean ± SEM (n = 3 to 4); one-way analysis of variance followed by Tukey's post hoc test.

[1] = Plasma free fraction by ultrafiltration, monkey; format: in vitro ADME, rhesus monkeys
Procedure: The plasma free fraction (fp) of ^11C-LY2428703 was measured by ultrafiltration through membrane filters (Centrifree; Millipore, Billerica, MA, USA) as previously described. Briefly, about 740 kBq of ^11C-LY2428703 (approximately 5 μL) was added to 650 μL of plasma. The mixture was incubated at room temperature for 10 min and then processed as described previously. When radioactivities for the filter components were high, they were allowed to decay until they were within the optimal range of the γ-counter. Determining the free fraction during preblocking was done by drawing blood samples after the preblocking treatments were initiated but immediately before administering the radioligand.
To assess the effects of blocking agents on the fP of ^11C-LY2428703, fP was measured in three monkeys both at baseline and after blockade. The first monkey was blocked with cold LY2428703 and fP was measured 2.5 min after blocker injection (which corresponds to the maximal concentration in plasma of LY2428703), and again at 40 min. The other two monkeys were blocked with DCPQ and elacridar, respectively.

[2] = In vitro stability in nonhuman primate blood and plasma; format: in vitro ADME; conditions: monkey, room temperature
Procedure: Nonradioactive anticoagulated blood was obtained on the day of study from either human or nonhuman primates. Aliquots of ^11C-LY2428703 (about 150 kBq) were added to 0.5 mL of whole blood or 0.5 mL of plasma. Samples were incubated at room temperature for 30 min, after which either 450 μL of the radioactive plasma was added to 720 μL of acetonitrile or 200 μL of the radioactive whole blood was added to 300 μL of water. The tube containing the blood suspension was shaken well to mix and lyse the blood cells. Seven hundred and twenty microliters of acetonitrile was subsequently added and mixed well to precipitate the proteins, followed by 100 μL of water, which was again re-mixed. Radioactivity in the tubes was measured in a gamma counter and then centrifuged at 10,000×g for 1 min. The clear supernatant liquid was injected into the high-performance liquid chromatography (HPLC) column and the precipitate counted to calculate the recovery of radioactivity into the acetonitrile.
The stability of the radioligand in whole blood or plasma was calculated as the ratio of the HPLC % composition of samples divided by the radiochemical purity of the radioligand.

[3] = Whole-body biodistribution and radiation dosimetry, monkey; format: in vivo, rhesus monkeys; conditions: for radiation-absorbed dose: monkey data extrapolated to 70-kg adult male
Procedure: Two male rhesus monkeys (14.1 and 19.9 kg) were scanned after intravenous injection of 318 and 274 MBq of ^11C-LY2428703, respectively. Dynamic two-dimensional scans were acquired on the GE Advance tomograph (GE Medical Systems, Milwaukee, WI, USA) in five bed positions of the body (head to upper thigh), with frames of increasing duration (15 s to 4 min) for a total scan time of up to 115 min.
Images were analyzed by placing regions of interest on the dynamic tomographic images. Regions were drawn in identifiable source organs: brain, heart, lungs, liver, spleen, gallbladder, kidneys, lumbar vertebrae, small intestine, testes, and urinary bladder. […] The mean recovery of activity in the body above the thigh measured by PET was 85.6% of the injected activity measured by a dose calibrator. This recovered total activity in the body was used as the new injected activity for each scan.
At each time point, the activity measured within the organs was converted into the fraction of the injected dose by dividing the organ activities by the recovered injected activity. The area under the curve (AUC) of each organ was calculated by the trapezoidal method until acquisition ended. The area under the curve after the acquisition of the last image (i.e., to infinity) was calculated by assuming that the decline in radioactivity after this time point occurred only via physical decay, without any further biological clearance.
Residence times from the monkeys were converted into corresponding human values by multiplying with a factor to scale organ and body weights: (bm/om) × (oh/bh), where bm and bh are the body weights of monkey and human, respectively, and om and oh are the organ weights of monkey and human, respectively.
Radiation absorbed doses were calculated from the residence times for each source organ. We used the model for a 70-kg adult male in the OLINDA/EXM computer program.

[4] = Pharmacological effects of injection, monkey; format: in vivo, rhesus monkeys; conditions: after injection
Procedure: PET images were acquired using either the high-resolution research tomograph (HRRT) or the FOCUS 220 scanner (Siemens/CPS, Knoxville, TN, USA) for 120 min in 33 frames, with frame durations ranging from 30 s to 5 min, and correcting for attenuation and scatter. About 2 h before the PET scan, anesthesia was initiated with ketamine (10 mg/kg IM) and then maintained with 1% to 3% isoflurane. Electrocardiograph, body temperature, heart rate, and respiration rate were measured throughout the experiment. At baseline, the injected activity was 210 ± 51 MBq (specific activity at time of injection 43.2 ± 25.6 GBq/μmol, mass dose 6.9 ± 4.7 nmol or 0.62 ± 0.35 nmol/kg). Tissue time-activity curves were obtained from semi-automatic regions of interest encompassing the whole cerebellum and the rest of the brain. Brain uptake was expressed as standardized uptake value (SUV). Arterial input function was obtained for eight scans: four at baseline, two after blocking with nonradioactive LY2428703, one after blocking with DCPQ, and one after blocking with elacridar. Blood samples (0.5 mL each) were drawn through a port connected to the femoral artery at 15-s intervals until 2 min, followed by 1-mL samples at 3, 5, 10, 30, 60, 90, and 120 min. The plasma time-activity curve was corrected for the fraction of unchanged radioligand following the procedure detailed above.

[5] = parameters: method as in PMID 23135321; conditions: rats; cited from earlier work

T1 sequence (P23385 19-1199): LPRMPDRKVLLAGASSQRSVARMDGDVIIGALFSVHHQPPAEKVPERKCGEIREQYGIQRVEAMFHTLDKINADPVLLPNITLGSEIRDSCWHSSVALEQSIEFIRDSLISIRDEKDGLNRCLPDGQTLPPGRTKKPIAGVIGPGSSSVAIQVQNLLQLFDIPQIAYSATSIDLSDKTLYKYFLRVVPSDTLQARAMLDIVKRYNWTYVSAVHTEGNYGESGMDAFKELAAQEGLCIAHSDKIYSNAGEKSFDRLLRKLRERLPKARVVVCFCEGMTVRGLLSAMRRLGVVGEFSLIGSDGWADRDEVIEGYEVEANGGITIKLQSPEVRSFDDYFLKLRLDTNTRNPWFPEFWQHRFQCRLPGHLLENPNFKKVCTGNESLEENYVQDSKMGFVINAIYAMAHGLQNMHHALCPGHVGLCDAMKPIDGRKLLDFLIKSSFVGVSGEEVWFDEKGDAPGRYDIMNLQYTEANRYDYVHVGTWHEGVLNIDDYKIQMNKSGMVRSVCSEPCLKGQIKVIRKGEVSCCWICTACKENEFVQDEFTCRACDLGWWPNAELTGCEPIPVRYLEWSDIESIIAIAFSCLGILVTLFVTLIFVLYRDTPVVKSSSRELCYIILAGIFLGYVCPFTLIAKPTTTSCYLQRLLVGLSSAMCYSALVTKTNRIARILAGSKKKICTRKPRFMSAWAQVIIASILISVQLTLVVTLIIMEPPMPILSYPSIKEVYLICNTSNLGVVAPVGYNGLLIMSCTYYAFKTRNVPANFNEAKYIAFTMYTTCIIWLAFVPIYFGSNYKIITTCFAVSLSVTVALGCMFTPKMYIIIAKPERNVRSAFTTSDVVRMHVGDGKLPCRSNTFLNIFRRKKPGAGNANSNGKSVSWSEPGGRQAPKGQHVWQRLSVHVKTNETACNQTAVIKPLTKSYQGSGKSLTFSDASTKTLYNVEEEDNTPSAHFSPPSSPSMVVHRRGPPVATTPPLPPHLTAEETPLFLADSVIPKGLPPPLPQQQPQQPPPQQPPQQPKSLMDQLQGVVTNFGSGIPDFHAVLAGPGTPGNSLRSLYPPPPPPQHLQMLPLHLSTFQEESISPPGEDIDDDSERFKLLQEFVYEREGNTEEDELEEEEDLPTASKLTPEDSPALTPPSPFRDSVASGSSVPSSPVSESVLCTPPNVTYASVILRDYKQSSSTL

fp × Bmax/KD (=VS), effective BP (mGluR1): 0.683
fp (plasma free fraction) ([1]; average of three baseline monkeys): 0.884%
fp ([1]; monkey blocked with nonradioactive LY2428703: baseline): 1.25 ± 0.12%
fp ([1]; monkey, 2.5 min after blockade with nonradioactive LY2428703): 1.12 ± 0.18%
fp ([1]; monkey, 40 min after blockade with nonradioactive LY2428703): 0.89 ± 0.14%
fp ([1]; monkey, DCPQ blocking experiment: baseline): 1.074%
fp ([1]; monkey, after DCPQ blockade): 1.100%
fp ([1]; monkey, after elacridar blockade): 0.912%
fp ([1]; monkey, elacridar blocking experiment: baseline): 0.456%
stability in whole blood and plasma [2]: completely stable
radiation-absorbed dose ([3]; heart wall): 8.2 μSv/MBq
radiation-absorbed dose ([3]; liver): 9.9 μSv/MBq
effective dose ([3]; monkey data extrapolated to humans): 5.8 μSv/MBq
peak uptake in liver ([3]; monkey, average peak): approximately 12 SUV
time of peak uptake in liver ([3]; monkey, post-injection): about 5 min
radiation-absorbed dose ([3]; other organs): less than 7 μSv/MBq
radiation-absorbed dose ([3]; testes): 13.7 μSv/MBq
Compound: Cc1c(-c2ccc(O[11CH3])cc2)nsc1NC(=O)[C@@H]1C[C@H]1C [^11C-LY2428703]
changes in pulse/heart rate, respiratory rate, electrocardiogram [4]: no significant changes
fp (plasma free fraction) [5]: 2.7^a %
